Test results reported in paper PMC6982996, “Discovery of [1,2,4]Triazole Derivatives as New Metallo-β-Lactamase Inhibitors” (Molecules, 2019).
Like-named read-outs stand apart in the source and are kept apart here.

Assays:
KPC-2 = molecular target: T1, KPC-2 (Klebsiella pneumoniae, UniProt Q9F663); experiment: KPC-2 SBL inhibition assay (counter screen); type: biochemical; details: mean ± SD (n = 3)
T1 construct: Li's Laboratory, Sichuan University (collaborator, a gift and not a purchase)
Experimental: (§1) Considering that MBLs and SBLs are two catalogs of β-lactamases, we further tested the compound 5l against some representative SBL enzymes, including KPC-2 (Klebsiella pneumoniae carbapenemase 2), TEM-1, AmpC, and OXA-48 (Oxacillinase 48), with the aim of investigating its selectivity; particularly, this is used as a counter screening to indicate the specific inhibition to MBLs. […] […].
(§2) All the target compounds were freshly prepared in 100 mM DMSO stock solutions. All the MBL and SBL enzymes used in this study were obtained from our collaborator, Li’s Laboratory in Sichuan University. Each compound was initially evaluated for inhibitory activity to MBL and SBL enzymes at 100 and 10 μM, by preincubation with the appropriate amount of enzymes in the assay buffer for 10 min, followed by adding the substrate FC5 to initiate the reactions, and monitoring the fluorescence at λex of 380 nm and λem of 460 nm. The IC50 values for the compounds (with 10 different concentrations in threefold dilution) were further determined. All determinations were tested in triplicate. The IC50 values were obtained from the plot of activity versus inhibitor concentration by using the GraphPad Prism software.

TEM-1 = molecular target: T2, TEM-1 (Escherichia coli, UniProt P62593); experiment: TEM-1 SBL inhibition assay (counter screen); type: biochemical; details: mean ± SD (n = 3)
T2 construct: Li's Laboratory, Sichuan University (collaborator, a gift and not a purchase)
T2 sequence (P62593 24-286 limits assumed): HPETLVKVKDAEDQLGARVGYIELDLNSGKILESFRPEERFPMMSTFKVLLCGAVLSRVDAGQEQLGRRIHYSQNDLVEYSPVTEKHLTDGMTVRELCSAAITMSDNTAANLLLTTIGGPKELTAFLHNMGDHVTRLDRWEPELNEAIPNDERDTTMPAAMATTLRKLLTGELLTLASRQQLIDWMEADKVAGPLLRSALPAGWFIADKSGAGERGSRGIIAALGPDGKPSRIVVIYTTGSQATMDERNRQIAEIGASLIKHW
Experimental: (§3) Considering that MBLs and SBLs are two catalogs of β-lactamases, we further tested the compound 5l against some representative SBL enzymes, including KPC-2 (Klebsiella pneumoniae carbapenemase 2), TEM-1, AmpC, and OXA-48 (Oxacillinase 48), with the aim of investigating its selectivity; particularly, this is used as a counter screening to indicate the specific inhibition to MBLs.
as §2

NDM-1 [1] = molecular target: T3, NDM-1 (Klebsiella pneumoniae, UniProt C7C422); experiment: NDM-1 inhibition assay (FC5 fluorogenic substrate); type: biochemical; details: mean ± SD (n = 3)
T3 construct: Li's Laboratory, Sichuan University (collaborator, a gift and not a purchase)
T3 sequence (C7C422 29-270, looked up, species assumed): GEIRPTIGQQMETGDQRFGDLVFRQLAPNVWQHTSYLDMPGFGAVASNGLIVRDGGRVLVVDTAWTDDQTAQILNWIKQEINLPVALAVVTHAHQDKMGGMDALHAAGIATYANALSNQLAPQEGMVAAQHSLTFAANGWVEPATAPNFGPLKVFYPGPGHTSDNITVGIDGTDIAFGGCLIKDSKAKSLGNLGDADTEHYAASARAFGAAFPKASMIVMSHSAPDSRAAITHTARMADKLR
Experimental: (§4) Then, we tested all the target compounds against other B1 MBL enzymes, including NDM-1, IMP-1, VIM-1, and VIM-5 (Table 1); all the assay conditions (including enzyme/substrate concentrations) are the same as that previously used. […]. […].
as §2

VIM-5 = VIM-5 inhibition assay (FC5 fluorogenic substrate); type: biochemical; details: @ 100 μM; mean ± SD (n = 3)
Experimental: as §4, §2

OXA-48 = molecular target: T4, OXA-48 (Klebsiella pneumoniae, UniProt Q6XEC0); experiment: OXA-48 SBL inhibition assay (counter screen); type: biochemical
T4 construct: Li's Laboratory, Sichuan University (collaborator, a gift and not a purchase)
T4 sequence (Q6XEC0 23-265 limits assumed): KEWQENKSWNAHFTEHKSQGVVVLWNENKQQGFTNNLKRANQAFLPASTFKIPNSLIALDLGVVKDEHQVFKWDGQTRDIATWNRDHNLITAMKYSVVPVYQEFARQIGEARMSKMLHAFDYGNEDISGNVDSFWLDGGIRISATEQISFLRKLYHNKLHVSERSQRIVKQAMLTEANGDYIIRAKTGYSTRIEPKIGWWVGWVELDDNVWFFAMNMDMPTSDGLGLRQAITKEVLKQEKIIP
Experimental: as §1, §2

VIM-1 = molecular target: T5, VIM-1 (Pseudomonas aeruginosa, UniProt A0A0F7KYQ8); experiment: VIM-1 inhibition assay (FC5 fluorogenic substrate); type: biochemical; details: @ 100 μM; mean ± SD (n = 3)
T5 construct: Li's Laboratory, Sichuan University (collaborator, a gift and not a purchase)
Experimental: as §4, §2

VIM-2 [2] = molecular target: T6, VIM-2 (Escherichia coli, UniProt Q5U7L7); experiment: VIM-2 inhibition assay (FC5 fluorogenic substrate); type: biochemical; details: for inhibition at 10 µM / inhibition at 100 µM: mean ± SD (n = 3)
T6 construct: Li's Laboratory, Sichuan University (collaborator, a gift and not a purchase)
Experimental: as §2

AmpC = AmpC SBL inhibition assay (counter screen); type: biochemical; details: 10 μM; mean ± SD (n = 3)
Experimental: as §3, §2

VIM-2 [3] = molecular target: T6, VIM-2
NDM-1 [4] = molecular target: T3, NDM-1; details: Figure 1, reported inhibitors; read-out: NDM-1 IC50 (reported MBL inhibitors); cited from earlier work
B3 L1 MBL = tested on: B3 L1 MBL; parameters: method as in PMID 17999929, PMID 20625539, PMID 25893049; details: Figure 1, reported inhibitor; read-out: L1 IC50 (reported MBL inhibitors); cited from earlier work
IMP-1 [5] = molecular target: T7, IMP-1 (Serratia marcescens, UniProt P52699); details: Figure 1, reported inhibitors; read-out: IMP-1 IC50 (reported MBL inhibitors); cited from earlier work
T7 construct: Li's Laboratory, Sichuan University (collaborator, a gift and not a purchase)
T7 sequence (P52699 19-246 limits assumed): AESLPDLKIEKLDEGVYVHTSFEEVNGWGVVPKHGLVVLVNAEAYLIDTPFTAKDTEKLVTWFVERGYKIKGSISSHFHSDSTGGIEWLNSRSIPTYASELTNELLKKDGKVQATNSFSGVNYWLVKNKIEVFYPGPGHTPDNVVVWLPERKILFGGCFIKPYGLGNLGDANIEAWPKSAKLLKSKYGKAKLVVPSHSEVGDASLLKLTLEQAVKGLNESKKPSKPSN

CfiA = details: Figure 1, reported natural product; read-out: CfiA IC50 (reported MBL inhibitors); cited from earlier work
IMP-1 [6] = molecular target: T7, IMP-1; experiment: IMP-1 inhibition assay (FC5 fluorogenic substrate); type: biochemical; details: mean ± SD (n = 3)
Experimental: as §4, §2

[7] = Figure 1, reported inhibitors; read-out: VIM-2 IC50 (reported MBL inhibitors); cited from earlier work

T1 sequence (Q9F663 25-293, looked up): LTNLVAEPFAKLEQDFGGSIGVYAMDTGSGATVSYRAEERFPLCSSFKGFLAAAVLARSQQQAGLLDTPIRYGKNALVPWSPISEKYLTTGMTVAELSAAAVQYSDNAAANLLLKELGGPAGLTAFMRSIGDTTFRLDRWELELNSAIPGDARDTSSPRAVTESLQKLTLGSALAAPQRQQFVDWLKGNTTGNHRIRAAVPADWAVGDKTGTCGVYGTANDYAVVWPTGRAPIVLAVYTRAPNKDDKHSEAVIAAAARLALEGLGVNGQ

Q: For Brc1ccc(-c2nnc3n2CCCS3)cc1 [5l, 3-(4-Bromophenyl)-6,7-dihydro-5H-[1,2,4]triazolo[3,4-b][1,3]thiazine], which inhibition at 10 µM (KPC-2; 10 μM) is on record?
A: Its inhibition at 10 µM is 2 ± 1%.

Q: What about the “Inhibition % KPC-2” value (KPC-2; 100 μM) of the same compound?
A: Its value is “No or low inhibitory activities”.

Q: What about the inhibition at 100 µM (KPC-2; 100 μM) of the same compound?
A: The inhibition at 100 µM was 8 ± 2%.

Q: What about the inhibition at 10 µM (TEM-1; 10 μM) of the same compound?
A: The inhibition at 10 µM was 9 ± 1%.

Q: What about the “Inhibition % TEM-1” value (TEM-1; 100 μM) of the same compound?
A: The value was “No or low inhibitory activities”.

Q: What about the inhibition at 100 µM (TEM-1; 100 μM) of the same compound?
A: The inhibition at 100 µM was 20 ± 3%.

Q: What about the inhibition at 10 µM (NDM-1 [1]) of the same compound?
A: Its inhibition at 10 µM is 10%.

Q: What about the inhibition at 100 µM (NDM-1 [1]) of the same compound?
A: The inhibition at 100 µM was 8 ± 1%.

Q: And the “Inhibition % VIM-5” value (VIM-5)?
A: The value was 33 ± 2/– %.

Q: And the “Inhibition % OXA-48” value (OXA-48; 100 μM, mean ± SD (n = 3))?
A: The value was “No or low inhibitory activities”.

Q: What about the inhibition at 10 µM (OXA-48; read-out: Inhibition % OXA-48) of the same compound?
A: The inhibition at 10 µM was 7 ± 1%.

Q: And the inhibition at 100 µM (OXA-48; read-out: Inhibition % OXA-48)?
A: Its inhibition at 100 µM is 17 ± 2%.

Q: What about the inhibition at 100 µM (VIM-1) of the same compound?
A: The inhibition at 100 µM was 23 ± 1%.

Q: What about the IC50 (VIM-2 [2]; 10 concentrations in threefold dilution, triplicate, read-out: IC50 against VIM-2) of the same compound?
A: The IC50 was 38.4 µM.

Q: What about the inhibition at 10 µM (VIM-2 [2]) of the same compound?
A: The inhibition at 10 µM was 53%.

Q: What about the inhibition at 100 µM (VIM-2 [2]) of the same compound?
A: The inhibition at 100 µM was 86 ± 5%.

Q: And the “Inhibition % AmpC” value (AmpC)?
A: The value was 13 ± 2%.

Q: Which IC50 (VIM-2 [3]; [7]) does the source give for C[C@H](CS)C(=O)N[C@@H](Cc1coc2ccccc12)B(O)O [III] here?
A: Its IC50 is 0.44 µM.

Q: And the IC50 (NDM-1 [4])?
A: Its IC50 is 37.9 µM.

Q: What does the source list for C[C@H](CS)C(=O)N[C@@H](C(=O)O)c1ccc(O)cc1 [II]?
A: IC50 (VIM-2 [3]; [7]): 0.0137 µM; IC50 (NDM-1 [4]): 3.57 µM

Q: For O=C(CSc1nnc(-c2ccccc2C(=O)O)[nH]1)Nc1nc2ccccc2s1 [IV], which Ki (VIM-2 [3]; Figure 1, reported inhibitor; read-out: VIM-2 Ki (reported MBL inhibitors); cited from earlier work) is on record?
A: Its Ki is 1.2 µM.

Q: For NCCN[C@H]1CC[C@H](CC(=O)N[C@H]2Cc3cccc(C(=O)O)c3OB2O)CC1 [IX, taniborbactam], which IC50 (VIM-2 [3]; [7]) is on record?
A: Its IC50 is 0.0005 µM.

Q: Which IC50 (B3 L1 MBL) does the source give for Cc1ccccc1-c1nnc(S)n1/N=C/c1ccccc1C(=O)O [V] here?
A: The IC50 was 15 µM.

Q: With N[C@@H](CN[C@@H](CN[C@@H](CC(=O)O)C(=O)O)C(=O)O)C(=O)O [XI, AMA] as the compound, how does the IC50 (VIM-2 [3]; [7]) read?
A: The IC50 was 9.6 µM.

Q: And the IC50 (NDM-1 [4])?
A: The IC50 was 4 µM.

Q: Which IC50 (VIM-2 [3]; read-out: VIM-2 IC50 (reported MBL inhibitors); Figure 1, reported inhibitors; cited from earlier work) does the source give for O=C(/C=C/c1ccc(O)c(O)c1)O[C@H](Cc1ccc(O)c(O)c1)C(=O)O [XII, Rosmarinic acid] here?
A: The IC50 was 41.5 µM.

Q: For CO[C@@H]1O[C@@H](C)Cc2oc3cc(O)c(O)c(C(=O)O)c3c(=O)c21 [X], which IC50 (IMP-1 [5]) is on record?
A: Its IC50 is 113 µM.

Q: And the IC50 (CfiA)?
A: The IC50 was 29 µM.

Q: For O=C(O)c1ccccc1-c1nnc2n1C(=O)CS2 [compound 15, 2-(5-Oxo-5,6-dihydrothiazolo[2,3-c][1,2,4]triazol-3-yl)benzoic acid], which inhibition at 10 µM (NDM-1 [1]) is on record?
A: Its inhibition at 10 µM is 10%.

Q: And the inhibition at 100 µM (NDM-1 [1])?
A: The inhibition at 100 µM was 8 ± 1%.

Q: And the “Inhibition % VIM-5” value (VIM-5)?
A: The value was 10 ± 2/– %.

Q: And the inhibition at 10 µM (IMP-1 [6]; @ 10 μM)?
A: Its inhibition at 10 µM is 19%.

Q: And the inhibition at 100 µM (IMP-1 [6]; @ 100 μM)?
A: Its inhibition at 100 µM is 13 ± 1%.

Q: What about the inhibition at 100 µM (VIM-1) of the same compound?
A: Its inhibition at 100 µM is 25 ± 2%.

Q: And the inhibition at 10 µM (VIM-2 [2])?
A: The inhibition at 10 µM was 18%.

Q: What about the inhibition at 100 µM (VIM-2 [2]) of the same compound?
A: The inhibition at 100 µM was 21 ± 2%.
